Reference: patent US20120177701A1, “COMPOSITIONS COMPRISING IMMUNOSTIMULATORY NUCLEIC ACIDS AND RELATED METHODS” (priority 2010, published 2012)

Tests used:
Format in all cases: cell-based
human TLR3 = molecular target: T1, human TLR3 (Homo sapiens, UniProt O15455)
T1 construct: expressed in transfected cells; host or cells: HEK-Blue hTLR3 (HEK293-derived reporter line)
T1 sequence (O15455 24-904): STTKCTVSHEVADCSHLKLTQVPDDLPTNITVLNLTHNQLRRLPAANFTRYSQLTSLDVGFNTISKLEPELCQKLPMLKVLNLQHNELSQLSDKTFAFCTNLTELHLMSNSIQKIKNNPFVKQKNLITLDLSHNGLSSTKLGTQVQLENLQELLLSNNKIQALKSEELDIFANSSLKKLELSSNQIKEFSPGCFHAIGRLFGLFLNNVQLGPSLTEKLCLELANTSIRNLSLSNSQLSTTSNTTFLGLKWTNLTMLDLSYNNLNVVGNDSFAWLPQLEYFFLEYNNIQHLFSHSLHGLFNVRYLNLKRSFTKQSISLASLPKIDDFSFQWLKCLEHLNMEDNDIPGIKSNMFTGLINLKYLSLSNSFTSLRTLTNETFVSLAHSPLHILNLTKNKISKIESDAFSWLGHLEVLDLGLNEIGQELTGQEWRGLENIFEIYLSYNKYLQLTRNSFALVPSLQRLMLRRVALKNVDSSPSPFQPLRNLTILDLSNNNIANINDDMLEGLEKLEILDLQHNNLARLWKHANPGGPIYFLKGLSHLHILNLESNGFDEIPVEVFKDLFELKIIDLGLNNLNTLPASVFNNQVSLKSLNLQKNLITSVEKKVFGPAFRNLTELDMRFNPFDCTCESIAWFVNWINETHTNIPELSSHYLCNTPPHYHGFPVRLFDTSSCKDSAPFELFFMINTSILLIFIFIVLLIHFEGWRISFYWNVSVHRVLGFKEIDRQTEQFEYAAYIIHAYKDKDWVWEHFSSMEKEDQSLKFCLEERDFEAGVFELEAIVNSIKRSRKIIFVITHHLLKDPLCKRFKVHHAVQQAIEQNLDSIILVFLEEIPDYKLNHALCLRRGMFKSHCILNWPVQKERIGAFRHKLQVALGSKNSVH

human TLR9 = molecular target: T2, human TLR9 (Homo sapiens, UniProt Q9NR96)
T2 construct: expressed in transfected cells; host or cells: HEK-Blue hTLR9 (HEK293-derived reporter line)
T2 sequence (Q9NR96 26-1032): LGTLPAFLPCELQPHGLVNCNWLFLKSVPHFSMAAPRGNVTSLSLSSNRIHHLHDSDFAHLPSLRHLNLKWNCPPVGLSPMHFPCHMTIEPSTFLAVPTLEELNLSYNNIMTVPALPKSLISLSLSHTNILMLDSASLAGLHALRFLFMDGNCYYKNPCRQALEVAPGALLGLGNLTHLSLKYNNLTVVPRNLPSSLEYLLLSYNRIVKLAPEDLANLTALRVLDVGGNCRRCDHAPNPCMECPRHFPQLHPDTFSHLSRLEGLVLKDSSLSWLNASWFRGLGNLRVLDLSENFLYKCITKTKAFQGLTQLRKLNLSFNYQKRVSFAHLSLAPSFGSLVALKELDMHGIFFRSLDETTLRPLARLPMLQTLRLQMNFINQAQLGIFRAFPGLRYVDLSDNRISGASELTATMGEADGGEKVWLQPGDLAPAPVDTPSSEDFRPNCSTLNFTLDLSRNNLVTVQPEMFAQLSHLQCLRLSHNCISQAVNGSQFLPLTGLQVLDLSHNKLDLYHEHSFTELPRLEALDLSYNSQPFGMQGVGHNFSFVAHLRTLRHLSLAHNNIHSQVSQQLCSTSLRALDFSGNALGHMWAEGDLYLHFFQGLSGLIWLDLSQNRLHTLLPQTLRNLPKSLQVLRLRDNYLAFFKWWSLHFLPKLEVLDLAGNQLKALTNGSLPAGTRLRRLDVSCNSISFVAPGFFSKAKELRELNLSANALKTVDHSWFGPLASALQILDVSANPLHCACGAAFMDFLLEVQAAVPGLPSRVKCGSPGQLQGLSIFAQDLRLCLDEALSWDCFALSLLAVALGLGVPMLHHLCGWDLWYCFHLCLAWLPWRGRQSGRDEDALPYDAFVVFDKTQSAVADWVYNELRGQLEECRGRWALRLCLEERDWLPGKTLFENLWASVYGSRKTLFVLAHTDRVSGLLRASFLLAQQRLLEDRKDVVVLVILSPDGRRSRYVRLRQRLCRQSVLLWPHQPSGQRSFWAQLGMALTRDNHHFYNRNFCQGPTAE

J774 murine macrophages = experiment: TNF-α induction in mouse macrophage cell line J774
Experimental: Induction of TNF-α by macrophages is a hallmark of human TLR8 activation (Forsbach et al., 2008, J. Immunol., 180:3729-38; Ghosh et al., 2007, Int. Immunopharmacol., 7:1111-21; Gorden et al., 2005, J. Immunol., 174:1259-68). […] In the following experiment mouse macrophage cell line, J774, has been transfected by test ribonucleotides as described above for HEK-Blue™ hTLR8 cells (with the exception that 2-10×10^4 cells/well were used) and TNF-α was measured in culture supernatants at 16-20 hours after transfection.

In the case of “5′-GAGAUGUUAUUUUGUUUUUAAUAUUUC-3′ (phosphorothioate backbone, further chemistry not given here) [SL-0001, phosphorothioated 27-ribonucleotide from the 3′-terminus of Chikungunya virus strain TSI-GSD-218, bases 12010-12036]”, the “activation of SEAP expression” value (human TLR3) is reported as “No activation of SEAP expression”, the “activation of SEAP expression” value (human TLR9) is reported as “No activation of SEAP expression” and the “TNF-α induction, described in words” value (J774 murine macrophages) is reported as “strongly induced TNF-α expression, to the level seen when R-0006 was used”.
